Test results from patent US20090181115A1, “Method of Screening for Compounds That Alter Skin and/or Hair Pigmentation” (priority 2006, published 2009).
“Also recorded” adds a separate entry of the source.

Assays:
NCKX5 = experiment: Western blot of NCKX5 protein 5 days after siRNA mediated knockdown; format: cell-based, human; settings: 5 days after siRNA knockdown, rabbit anti-NCKX5 pAb (anti C-terminus peptide)
Method: Using western blot we have investigated NCKX5 protein expression 5 days after siRNA mediated knockdown (all 5 siRNA duplexes and controls were tested). Western blot was also used to evaluate the expression and processing (maturation) of tyrosinase (tyr) in the same samples. SDS-PAGE (10% PA for NCKX5, 4-12% for tyr, 5 μg protein/lane). A) Western blot for NCKX5: Detection via rabbit anti-NCKX5 pAb (anti C-terminus peptide). B) Western blot for tyr, via goat pAb (Santa Cruz). 1=No treatment, 2=scrambled siRNA control, 3-7=siRNA's 185, 260, 301, 492, 1110. […] These bands are absent in the samples where SLC24A5-specific duplexes were used (lanes 3-7). It is possible that the doublet represents the presence of alternate SLC24A5 splice variants.
(§1) • Cultured Cells (trypsinised off of 6-well culture plates) were lysed on ice for 20 minutes in 1.5 ml eppendorfs using 100 μl per sample of 1% triton X-100 in dPBS containing protease inhibitor cocktail (Sigma-Aldrich, Poole, UK). Cell extracts were centrifuged (10 minutes at 13000 g) to separate melanin and cell debris from the solubilised protein. The protein concentration of each supernatant fraction was determined by BCA assay as described in A).
• 20 μg protein (as determined by BCA assay) was reconstituted into 20 μl of 1×LDS loading buffer (Invitrogen Ltd, Paisley, UK) containing 1× reducing agent (Invitrogen Ltd, Paisley, UK), heated to 40° C. for 30 minutes and loaded onto 10% Novex bis-tris acrylamide gels with 1×MOPS running buffer (Invitrogen Ltd, Paisley, UK). Kaleidoscope molecular weight markers (Bio-Rad Laboratories Ltd, Hemel Hempstead, UK) were run alongside samples for size determinations. Protein was transferred onto PVDF membrane by electrophoresis transfer, using a Bio-Rad mini-cell II trans-blotter and 1× Tris-Glycine transfer buffer (Invitrogen Ltd, Paisley, UK)+15% v/v methanol (100V for 1 hour).
• Membranes containing transferred protein were “blocked” using 2% w/v skimmed milk protein (SMP) in PBS+0.05% tween20 (PBST) for 1 hour with gentle agitation. Peptide affinity purified rabbit polyclonal antibody (raised using a peptide equivalent to the C-terminus of NCKX5-GNNKIRGCGG) was diluted to 0.5 μg/ml using 2% SMP in PBST. The diluted antibody was incubated with the membrane for 2 hours at room temperature. The membrane was then rinsed with PBST (4×5 minutes washes). Peroxidase conjugated anti-rabbit IgG (Jackson ImmunoResearch Laboratories Inc. PA, USA) was diluted 1/4000 using 2% SMP in PBST and was incubated with the membranes for 1 hour. Finally, membranes were washed using 6×5 minute rinses with PBST. SuperSignal Western pico (Perbio Science UK Ltd, Northumberland, UK) chemiluminescence detection reagents was used to probe the membranes for secondary antibody binding as per the manufacturers instructions. Visualisation of results was via a Chemidoc XRS imaging system (Bio-Rad Laboratories Ltd, Hemel Hempstead, UK).

[1] = test system: lightly pigmented human melanocytes; experiment: Quantitative assessment of melanogenesis (melanin content) after siRNA knockdown in human melanocytes; format: cell-based; settings: replicated x3
Method: A decrease in post-treatment melanin content is noted for duplex (492) in lightly pigmented human melanocytes (replicated ×3).
as §1
• To each pellet of melanin+cell debris obtained in section 2), 0.5 ml of diethyl ether:ethanol (1:1 ratio) was added. Eppendorfs were vortexed vigorously for 30 seconds and centrifuged at 13000 g for 5 minutes. The ether layer was carefully removed to waste and a further 0.5 ml was added. The tubes were agitated and centrifuged as before. The liquid phase was again removed and the melanin pellets were allowed to air dry at room temperature for 10 minutes. […] OD^45 0 of each sample was determined and the melanin content of each fraction was calculated from a synthetic melanin standard curve, prepared as described above. In treatment comparisons, results were expressed as μg melanin per μg protein. […]

B16 cells [2] = experiment: Melanin synthesis in B16 cells after SLC24A5 siRNA knockdown (OD450 of media); format: cell-based, mouse; settings: transfected 8 hours, cultured a further 3 days
Method: Cells were transfected (lipofectamine 2000) with siRNA duplexes or controls for 8 hours. Cells were cultured for a further 3 days prior to analyses.
(§2) Media was removed and melanin quantified by OD450. Cell viability measured using Wst1 proliferation reagent (Roche) before lysis using 1% triton ×100. Protein content of each well was determined by BCA assay.
Experiment (each in quadruplicate) reproduced x3 consecutively.
24 h prior to transfection, B16 cells were plated at 25,000 cells/well in a 48-well plate. Cells in quadruplicate wells were transfected with 2 μg/ml Lipofectamine 2000 and 50 nM Stealth™ RNAi duplexes targeting SLC24A5 or scrambled controls (from Invitrogen). […]
Cells were incubated with transfection reagents for 6-8 h, reagents were then removed and replaced with phenol red-free DMEM supplemented with 10% FCS and 4 mM L-glutamine for 72 h. At 72 h, cells were taken for viability and total protein determination and supernatants analysed for melanin production.
• The phenol free DMEM culture media was removed from each well for quantification of secreted melanin. […] Soluble fractions were kept for protein quantification.
• 1 mg synthetic melanin (Sigma-Aldrich, Poole, UK) was dissolved in 50 μl of 100% DMSO. […] This standard was serially diluted (5-fold) in media+FCS to give a standard curve for quantification of melanin in sample preparations (range from 1000 to 8 μg/ml). […]

B16 cells [3] = experiment: Cell viability of B16 cells after siRNA treatment (Wst1 assay); format: cell-based, mouse; settings: end of each experiment
Method: as §2
Cell viability and protein content determination post-treatment could help to identify the manner in which SLC24A5 modulates pigment production in B16 melanocytes. […] This conclusion is supported by data obtained for protein content.
• The phenol free DMEM culture media was removed from each well for quantification of secreted melanin. Each well of the culture plate was then rinsed once with Dulbeccos phosphate buffered saline (dPBS) (Sigma-Aldrich, Poole, UK) and replaced with 0.5 ml Wst1 reagent (diluted 1/10 in media) (Roche Diagnostics Ltd, West Sussex, UK). The culture plate was incubated at 37° C., 5% CO2 for 30 minutes. The Wst1 reagent was removed from each well for determination of cell viability and each well was again rinsed with dPBS. 200 μl of 1% w/v Triton X-100 (Sigma-Aldrich, Poole, UK) in dPBS was added to each well of the culture plate. The plate was incubated for 20 minutes at 4° C. on an orbital shaker. Supernatant from each well was removed and centrifuged at 13000 g for 5 minutes to remove cell debris. Soluble fractions were kept for protein quantification.
• The OD^450 of 100 μl fractions (measured in duplicate) of post-incubation Wst1 reagent was measured. […]

Substance	NCKX5 bands of approx. 42 and 44 KDa on western blot (NCKX5)	also measured
duplex 1110: Stealth siRNA duplex against human SLC24A5, exon 7; 5′ CCGCATTTACATATATCCTGGTTTG 3′ (antisense CAAACCAGGATATATGTAAATGCGG; Stealth chemically modified siRNA duplex, pattern not given here)	absent	
duplex 492: Stealth siRNA duplex against human SLC24A5, exon 3 & 4 boundary; 5′ GCACCATCCTTGGATCTGCAATTTA 3′ (antisense TAAATTGCAGATCCAAGGATGGTGC; Stealth chemically modified siRNA duplex, pattern not given here)	absent	post-treatment melanin content [1]: decrease
duplex 301: Stealth siRNA duplex against human SLC24A5, exon 2; 5′ CGTTTACATGTTCATGGCCATATCT 3′ (antisense AGATATGGCCATGAACATGTAAACG; Stealth chemically modified siRNA duplex, pattern not given here)	absent	
duplex 567: Stealth RNAi duplex targeting murine SLC24A5; sense 5′-CCUCUUCCGAGACUGUGCAGUGUAU-3′ (antisense GGAGAAGGCUCUGACACGUCACAUA; Stealth chemically modified RNAi duplex, pattern not given here; one strand is listed 3' to 5')		melanin synthesis / pigment production (B16 cells [2]): visibly decreased; cell viability / toxicity (B16 cells [3]): significant toxicity
duplex 185: Stealth siRNA duplex against human SLC24A5, exon 1 & 2 boundary; 5′ AGGGCCACAGGAAATAGCACCCAAT 3′ (antisense ATTGGGTGCTATTTCCTGTGGCCCT; Stealth chemically modified siRNA duplex, pattern not given here)	absent	
duplex 762: Stealth RNAi duplex targeting murine SLC24A5; sense 5′-CAGAGCUAUGGAGGAGAGAAUUGAA-3′ (antisense GUCUCGAUACCUCCUCUCUUAACUU; Stealth chemically modified RNAi duplex, pattern not given here; one strand is listed 3' to 5')		melanin synthesis / pigment production (B16 cells [2]; listed as 762): visibly decreased; also recorded: reduce pigment production; cell viability / toxicity (B16 cells [3]): without affecting viability
duplex 260: Stealth siRNA duplex against human SLC24A5, exon 2; 5′ GAGCGCAGAGATGGAGGCATCATAA 3′ (antisense TTATGATGCCTCCATCTCTGCGCTC; Stealth chemically modified siRNA duplex, pattern not given here)	absent	
